In brackets after ≈: the same amount, converted by molar mass. Structures can show the parent of a compound that is named as a salt. Where two headings read alike, the source gives them in different places.

The values below come from EP4570802A1, “SALT TYPE AND CRYSTAL FORM OF BENZAZEPINE FUSED RING COMPOUND AND USE THEREOF” (SHANGHAI JEYOU PHARMACEUTICAL CO., LTD., priority 2022, dated 2024).

Data set [1] can be described thus: Stability study (solid state, XRPD characterization after 7 days and 15 days). In kind it is physicochemical. The note with it: High temperature, 60°C. On the procedure:
Approximately 20 mg of sample was weighed into a weighing bottle and exposed to high temperature (60°C), high humidity (25°C/92.5% RH), light (25°C/4500 Lux), and accelerated (40°C/75% RH) conditions, followed by sampling for XRPD characterization after 7 days and 15 days.
Samples were taken for XRPD characterization after 7 days and 15 days. 62 to 65. […]

Data set [2] in a line: Solubility test in biological media (dynamic solubility in FaSSIF, FeSSIF, FaSSGF; pH of the 24-hour supernatant; XRPD of remaining solid). It counts as physicochemical. To be noted: for Final pH: 24-hour supernatant; for Solubility (mg/mL) 0.5 h: 30 min; for Solubility (mg/mL) 2h: 120 min; for Solubility (mg/mL) 24 h: 1440 min; for XRPD for remaining solid: remaining solid after 24 hours; for solubility at 0.5 h: read-out: Solubility (mg/mL) 0.5 h; for solubility at 2 h: read-out: Solubility (mg/mL) 2h; for solubility at 24 h: read-out: Solubility (mg/mL) 24 h. On the procedure: Samples of different crystal forms were added to biological media and shaken at a constant temperature of 37°C for 24 hours, followed by sampling at 0.5 hours, 2 hours, and 24 hours, respectively, and the sampled solution was filtered using a 0.22 µm hydrophilic filter membrane. Some of the samples with higher concentrations were appropriately diluted with a diluent, and the signal peak area of the solution was measured by HPLC. Finally, the concentration of the compound in the solution was calculated based on the peak area, the HPLC standard curve of the starting material, and the dilution factor. In addition, the 24-hour supernatant was tested for pH, and the remaining solid was subjected to XRPD testing.

Setting [3] is: FaSSGF, listed as Crystal form S.
Setting [4] is: FaSSGF, pH 1.6, 37°C, listed as Crystal form S.
Setting [5] is: FaSSIF, listed as Crystal form S.
[6] abbreviates: FaSSIF, pH 6.5, 37°C, listed as Crystal form S.
Setting [7] is: FeSSIF, listed as Crystal form S.
The mark [8] stands for this setting: FeSSIF, pH 5.0-5.1, 37°C, listed as Crystal form S.
Setting [9] is: Water, listed as Crystal form S.
[10] abbreviates: FaSSGF, listed as Crystal form C of fumarate.
Setting [11] is: FaSSIF, listed as Crystal form C of fumarate.
Where [12] appears, read: FeSSIF, listed as Crystal form C of fumarate.

For the molecule `O=C(Nc1ccc(C(=O)N2CC[C@@H]3CCN[C@H]3c3cc(Cl)ccc32)cn1)c1ccccc1C(F)(F)F` [crystal form S], in data set [1] (XRPD characterization after 7 days), the “Results after 7 days” value is “No change”. Besides, the “Results after 15 days” value in data set [1] (XRPD characterization after 15 days) was “No change”. Moreover, the “Final pH” value in data set [2] (setting [3]) is 2.0; in data set [2] (setting [5]) it was 6.5; in data set [2] (setting [7]), 5.1; in data set [2] (setting [9]) it was 7.4. For the same molecule, the “Solubility (mg/mL) 0.5 h” value in data set [2] (setting [4]) is on record as greater than 7.19 mg/mL; in data set [2] (setting [6]), 0.03 mg/mL (≈ 58.3 µM); in data set [2] (setting [8]), 0.40 mg/mL (≈ 777 µM). In addition, the “Solubility (mg/mL) 2h” value in data set [2] (setting [4]) was greater than 7.35 mg/mL; in data set [2] (setting [6]), 0.04 mg/mL (≈ 77.7 µM); in data set [2] (setting [8]), 0.44 mg/mL (≈ 854 µM); in data set [2] (Water, 37°C, listed as Crystal form S), 0.001 mg/mL (≈ 1.94 µM). Also, the “Solubility (mg/mL) 24 h” value is 2.15 mg/mL (≈ 4180 µM) in data set [2] (setting [4]), 0.04 mg/mL (≈ 77.7 µM) in data set [2] (setting [6]) and 0.43 mg/mL (≈ 835 µM) in data set [2] (setting [8]). Further, the “XRPD for remaining solid” value in data set [2] (setting [3]) is recorded as “Amorphous*”; in data set [2] (setting [5]), “Crystal form S”; in data set [2] (setting [7]), “Crystal form S”; in data set [2] (setting [9]), “Crystal form S”.

Take `O=C(Nc1ccc(C(=O)N2CC[C@@H]3CCN[C@H]3c3cc(Cl)ccc32)cn1)c1ccccc1C(F)(F)F` [crystal form C of fumarate]: the results for the “Final pH” value in data set [2] (setting [10]), in data set [2] (setting [11]) and in data set [2] (setting [12]) were 1.7, 6.1 and 5.0, respectively. Further, the solubility at 0.5 h in data set [2] (FaSSGF, pH 1.6, 37°C) amounted to 0.65 mg/mL; in data set [2] (FaSSIF, pH 6.5, 37°C), 0.38 mg/mL; in data set [2] (FeSSIF, pH 5.0-5.1, 37°C), 0.66 mg/mL. Besides, the solubility at 2 h in data set [2] (FaSSGF, pH 1.6, 37°C) turned out to be 0.7 mg/mL; in data set [2] (FaSSIF, pH 6.5, 37°C) it was 0.35 mg/mL; in data set [2] (FeSSIF, pH 5.0-5.1, 37°C), 0.74 mg/mL. In addition, the solubility at 24 h in data set [2] (FaSSGF, pH 1.6, 37°C) turned out to be 0.71 mg/mL; in data set [2] (FaSSIF, pH 6.5, 37°C), 0.28 mg/mL; in data set [2] (FeSSIF, pH 5.0-5.1, 37°C), 0.68 mg/mL. Moreover, the “XRPD for remaining solid” value in data set [2] (setting [10]) is on record as “Obvious change”; in data set [2] (setting [11]), “Crystal form C of fumarate + new peak”; in data set [2] (setting [12]), “Crystal form C of fumarate + new peak”.
